Measured values taken from PubChem BioAssay AID179 (DTP/NCI, 2004).
The source made the active and inactive calls.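 How the source made its calls: active means compounds giving half or more protection of infected cells from virus-caused growth loss, again on retest; inactive means the rest.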

Tested on: CEM cells HIV-1 protection, formazan growth assay
Experiment: NCI AIDS Antiviral Assay
Conditions: for IC50: measured here: growth of uninfected CEM cells
Procedure, shortened: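 Protection of CEM cells against HIV-1 measured as cell growth via soluble formazan read-out, with five concentrations tested on both infected and uninfected cells; failure to protect may reflect toxicity.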

CCC(/C=C/c1ccccc1)=N\N=C(\C=C\c1ccccc1)CC
EC50: > 41.7 µM | IC50: 2.51 µM

O=C(O)c1ccccc1C(=O)c1ccc(O)cc1
EC50: > 200 µM | IC50: > 200 µM

CC1(C)C2CCC1(C)C(Cl)([N+](=O)[O-])C2 (stereo unspecified)
outcome: inactive

[C-]#[N+]CS(=O)(=O)c1ccc(C)cc1
EC50: > 479 µM | IC50: > 479 µM

COC(=O)C1=C(C(=O)OC)SC(=C(N=Nc2ccccc2)c2ccccc2)S1
outcome: inactive

Cn1c(COc2ccc(/C=N/NC(=O)c3cccc(C(=O)N/N=C/c4ccc(OCc5c[n+]6ccccc6n5C)cc4)c3)cc2)c[n+]2ccccc12
EC50: > 6.92 µM | IC50: > 6.92 µM

O=C(O)c1cc2c(cc1CC(Cc1ccc3c(c1)CCC3)C(=O)O)CCC2 (stereo unspecified)
EC50: > 200 µM | IC50: 105 µM

CC1(C)C(C#N)=[N+]([O-])C(C)(C)N1O
EC50: > 200 µM | IC50: 123 µM

COc1cc(/C=C/C(=N\NC(N)=S)c2sc(NNC(C)=O)nc2C)ccc1O
EC50: > 77.6 µM | IC50: 69.2 µM

C=CCC1(C2=C(C)C(=O)c3ccccc32)CCCS1 (stereo unspecified)
EC50: > 200 µM | IC50: 31.6 µM

COc1ccc(/C=[N+](\[O-])[C@H](COCc2ccccc2)c2ccccc2)cc1
EC50: > 72.4 µM | IC50: > 72.4 µM

C=C1c2nc3ccccc3n2C=C(c2ccccc2)N1c1ccc(C)cc1
EC50: > 200 µM | IC50: 28.2 µM

NC1=NC(OCC2(CO)CCC2)C=C(NCC2(CO)CCC2)N1 (stereo unspecified)
EC50: > 200 µM | IC50: > 100 µM

CC(C)(C)[Si](C)(C)OCC1OC(n2ccc(=O)[nH]c2=O)C(C/C=[N+](/[O-])CC2OC(n3ccc(=O)[nH]c3=O)C(O[Si](C)(C)C(C)(C)C)C2O[Si](C)(C)C(C)(C)C)C1O[Si](C)(C)C(C)(C)C (stereo unspecified)
EC50: > 100 µM | IC50: 89.1 µM

COc1ccc(Oc2cc(CC3c4cc(OC)c(OC)cc4CCN3C)c([N+](=O)[O-])cc2OC)cc1OC (stereo unspecified)
outcome: inactive

CC(=O)N(C)CCc1c[nH]c2ccccc12
EC50: > 200 µM | IC50: > 200 µM

COC(=O)C12C(=O)O[C@H](C)C1(O)C(C)C(=O)N2C (stereo partly specified)
outcome: inactive

O=C1C2c3[nH]c4ccccc4c3[C@@H]3CCCCC3C2C(=O)N1c1ccccc1 (stereo partly specified)
outcome: inactive

CC(=O)OCC(C)C1=C(O)C(=O)C2(C)C/C=C(/C)CC/C=C(\C)CCC(O)C(C)CCC12 (stereo unspecified)
EC50: > 200 µM | IC50: 11.5 µM

O=C1OCc2nc3c(c(-c4ccccc4C(F)(F)F)c21)C(=O)OC3
outcome: inactive

Cc1cc2c(C)n(Cc3ccc(Cl)cc3Cl)nc2c(C(=O)O)c1C
EC50: > 501 µM | IC50: 83.2 µM

CC(C)(C)OC(=O)N1CCCCC(CCCC#Cc2ccccc2)C1=O (stereo unspecified)
EC50: > 38 µM | IC50: > 38 µM

O=C(/N=N/C(=O)Oc1ccccc1)Oc1ccccc1
EC50: > 200 µM | IC50: 33.1 µM

CN1C2CCC1CC1(C2)SCCS1
outcome: inactive

Cc1ccc(S(=O)(=O)OCCOS(=O)(=O)c2ccc(C)cc2)cc1
EC50: > 36.3 µM | IC50: > 36.3 µM

O=C(Nc1nc2ccccc2n1Cc1ccccc1)NC12CC3CC(CC(C3)C1)C2
EC50: > 200 µM | IC50: > 200 µM

Cc1cc2cccc(Cl)c2nc1C(=O)c1ccccc1
EC50: > 6.61 µM | IC50: > 6.61 µM

N#C/C(=C\NC(=S)Nc1cc(Cl)ccc1Cl)C(=O)c1ccc2ccccc2c1
EC50: > 100 µM | IC50: > 100 µM

CC(=O)Nc1cccc(C(CC(=O)O)CC(=O)O)c1
EC50: > 200 µM | IC50: > 200 µM

CC1(C)C2CCC1(C)C(O)(c1ccccc1)C2=O (stereo unspecified)
EC50: > 91.2 µM | IC50: > 91.2 µM

CC(=O)OCC1OC(N2C(C)=C(C(C)=O)C(c3ccc(Cl)cc3)C(C#N)=C2S)C(OC(C)=O)C(OC(C)=O)C1OC(C)=O (stereo unspecified)
EC50: > 200 µM | IC50: 29.5 µM

Cc1c(O)c(OC2OC(CO)C(O)C(O)C2O)cc2c1CC[C@@H]1C2(C)C(=O)C[C@]2(C)[C@@H]([C@@](C)(O)C3CCC(C)(C)O3)[C@H](O)C[C@@]12C (stereo partly specified)
EC50: > 200 µM | IC50: > 200 µM

CCCSc1nn2cc(NC(=O)OC)nc2s1
EC50: > 200 µM | IC50: 2.29 µM

CCCCCC(O)[C@H]1C(=O)C[C@@H](O[Si](C)(C)C(C)(C)C)[C@@H]1/C=C/CCOCc1ccccc1 (stereo partly specified)
outcome: inactive

Cc1ccc(S(=O)(=O)OCC/C(=C\[Si](C)(C)C)c2ccccc2)cc1
outcome: inactive

CC1=C(O)C(=O)C2C(=O)C1C1Cc3ccccc3C21 (stereo unspecified)
EC50: > 513 µM | IC50: > 513 µM

COc1cc(/C=C2/CCS(=O)(=O)c3ccc(C)cc3C2=O)cc(OC)c1OC
EC50: > 200 µM | IC50: 3.72 µM

O=C(O)c1ccccc1CC1Cc2ccccc2C1
EC50: > 200 µM | IC50: > 200 µM

CC1=C(CO)C(=O)OC(C(C)C2CCC3C4CC5OC56C(O)C(N5CC5)=CC(=O)C6(C)C4CCC23C)C1 (stereo unspecified)
outcome: inactive

COc1cccc(N(CN2CC=CC2=O)C(C)=O)c1
outcome: inactive

COC(=O)C1=C(C(=O)OC)NC2=C(C=N1)CCC2
EC50: > 380 µM | IC50: > 380 µM

OCCCSCCCCSCCCO
EC50: > 41.7 µM | IC50: > 41.7 µM

C/C(O)=C(\C=N\C(=S)Nc1cccc(C(F)(F)F)c1)C(=O)Nc1ccccc1C
EC50: > 100 µM | IC50: 75.9 µM

O=C1NC(=O)c2ncccc21
EC50: > 200 µM | IC50: > 200 µM

CCc1cccc2c3c([nH]c12)C(CC)(CC(=O)O)OCC3 (stereo unspecified)
EC50: > 200 µM | IC50: > 200 µM

COC(=O)[C@H](Cc1cn(C(c2ccccc2)(c2ccccc2)c2ccccc2)cn1)NCc1cc(N(C)C)cc(CN[C@@H](Cc2cn(C(c3ccccc3)(c3ccccc3)c3ccccc3)cn2)C(=O)OC)n1
EC50: > 100 µM | IC50: 5.89 µM

CC1(C)CC23C4COC(=O)C2CCC1C3CC4=O (stereo unspecified)
EC50: > 117 µM | IC50: 4.07 µM

CSc1nc(C)c2c(n1)N(c1ccc(Cl)cc1)CC2
EC50: > 200 µM | IC50: > 200 µM

N#CC12CC=C(c3ccccc3)N=C1NC(c1ccccc1)=CC2 (stereo unspecified)
EC50: > 200 µM | IC50: 23.4 µM

CN1C(C)(c2ccccc2)c2ccccc2S1(=O)=O (stereo unspecified)
EC50: 3.89 µM | IC50: 85.1 µM

COC(=O)C1CC(c2ccc(Cl)cc2)=NO1 (stereo unspecified)
EC50: > 282 µM | IC50: > 282 µM

CC(=O)N1C(=O)c2cc3ccccc3cc21
EC50: > 200 µM | IC50: > 100 µM

CC(C)N(CCn1c2c3ccccc3ccc2c2oc(=O)c3ccccc3c21)C(C)C
EC50: > 22.4 µM | IC50: > 22.4 µM

O=c1[nH]c(=O)n(C2CC(O)C(CO)O2)cc1Oc1ccccc1 (stereo unspecified)
EC50: > 200 µM | IC50: > 200 µM

CN(C)c1ccc(/C=C(\C#N)c2c(Cl)cccc2Cl)cc1
EC50: > 200 µM | IC50: 4.57 µM

CNC(c1ccncc1)C(NC)c1ccncc1 (stereo unspecified)
EC50: > 200 µM | IC50: > 200 µM

CCOC(=O)c1cn(C)c2c1C(=O)C(C(=O)OCC)CCN2C(=O)OCC (stereo unspecified)
EC50: > 240 µM | IC50: > 240 µM

CSc1nc2c(=O)oc(-c3ccc(Cl)cc3)nc2s1
EC50: > 200 µM | IC50: 110 µM

C/C(CC(O)(C(F)(F)F)C(F)(F)F)=N\NC(N)=S
EC50: > 200 µM | IC50: > 200 µM

O=Cc1cn(C(=O)c2ccccc2)c2ccccc12
outcome: inactive

COc1cccc2c1C(=O)c1c(O)c3c(c(O)c1C2=O)C[C@@](O)(C(C)=O)C[C@@H]3OC1CC(O)C(O)C(C)O1 (stereo partly specified)
EC50: > 0.2 µM | IC50: 0.0107 µM

COc1cc2cc(c1Cl)N(C)C(=O)C[C@H](OC(=O)[C@H](C)N(C)C(C)=O)[C@]1(C)O[C@H]1[C@H](C)[C@@H]1C[C@@](O)(NC(=O)O1)[C@H](OC)C=C/C=C(\C)C2
outcome: inactive

O=c1[nH]c(Nc2ccc(Br)c(C(F)(F)F)c2)nc2nc[nH]c12
EC50: > 151 µM | IC50: 28.2 µM

CC(=O)OC1CCC2(C)C(=CCC3C2CCC2(C)C3CC3N(c4ccccc4Cl)C32C#N)C1 (stereo unspecified)
EC50: > 21.4 µM | IC50: > 21.4 µM

O=C1CCCCC1=O
outcome: inactive

O=C(O)C(F)(F)C(F)(F)C(F)(F)C(F)(F)C(F)(F)C(F)(F)C(F)(F)C(F)(F)F
EC50: > 200 µM | IC50: 105 µM

COc1cccc(N2C(=O)C3c4[nH]c5ccc(C)cc5c4C4CCC(C(C)(C)C)CC4C3C2=O)c1 (stereo unspecified)
EC50: > 200 µM | IC50: 9.55 µM

Nc1ccn(C2CC(O)C(COP(O)(=S)OC3CC(n4ccc(N)nc4=O)OC3CO)O2)c(=O)n1 (stereo unspecified)
EC50: > 200 µM | IC50: > 200 µM

CC(=O)O[C@H]1CC[C@@]2(C)C(=CC[C@@H]3C2CC[C@@]2(C)C3CC[C@@H]2c2ncc(C)s2)C1 (stereo partly specified)
EC50: > 60.3 µM | IC50: > 60.3 µM

COC(=O)C(N)CSc1ccc([N+](=O)[O-])cc1[N+](=O)[O-] (stereo unspecified)
EC50: > 741 µM | IC50: 115 µM

CN(C)P1(=O)OCC2CCC[C@@H]2O1 (stereo partly specified)
outcome: inactive

CN1B(c2ccccc2)N(C)C(=O)N(C)C1=O
EC50: > 200 µM | IC50: > 200 µM

O=C(O)[C@@H]1CSCN1C(=O)c1cccnc1SSc1ncccc1C(=O)N1CSC[C@H]1C(=O)O
EC50: > 200 µM | IC50: > 200 µM

C=CCNC(=S)N/C=C(/C(=O)c1ccccc1)c1ccccc1
EC50: > 200 µM | IC50: 182 µM

COP12(OC)NC(=O)OC1(C(F)(F)F)c1ccccc1O2 (stereo unspecified)
EC50: > 776 µM | IC50: 537 µM

CC(C)OP(=O)(OC(C)C)/C(I)=N/Nc1ccc([N+](=O)[O-])cc1
EC50: > 110 µM | IC50: > 110 µM

Cc1cc(=O)oc2c(C)c(O)ccc12
EC50: > 138 µM | IC50: 97.7 µM

NC(=O)NC1=NCCC(=O)N1CCc1c[nH]c2ccccc12
EC50: > 200 µM | IC50: 12.3 µM

COC(=O)[C@@H]1C=CCN1S(=O)(=O)c1ccc(C)cc1
outcome: inactive

Cc1ccc(NC(=O)CC(=O)n2nc(C)c(N=Nc3ccccc3C(=O)O)c2C)cc1
EC50: > 427 µM | IC50: > 427 µM

CC(C)c1cccc(C(C)C)c1NC(=O)C(=O)C(C(=O)c1ccc2ccccc2c1)C1OC(=O)c2ccccc21 (stereo unspecified)
EC50: > 67.6 µM | IC50: 34.7 µM

CCCC(=O)c1c(NOC2OC(COC(C)=O)C(OC(C)=O)C(OC(C)=O)C2OC(C)=O)nc(OC)n(C)c1=O (stereo unspecified)
EC50: > 63.1 µM | IC50: > 63.1 µM

CN(C)c1ccc(/C=C(\NC(=O)c2ccccc2)C(=O)Nc2cccc(C(=O)NCCCO)c2)cc1
EC50: > 200 µM | IC50: > 200 µM

O=P1(NCCCl)OCCCN1CCCl (stereo unspecified)
EC50: > 955 µM | IC50: > 955 µM

C/C(=N\O)c1ccc2c3c(ccc([N+](=O)[O-])c13)CC2
EC50: > 200 µM | IC50: 46.8 µM

CN=C1CN2OC(=O)N(C)C2(c2ccccc2)c2cc(Cl)ccc2N1 (stereo unspecified)
EC50: > 112 µM | IC50: 41.7 µM
